Results as given in patent publication US12679822B2, “Alkenyl pyrimidine compound, preparation method therefor, and application thereof” (Hongyun Biotech Co., Ltd., priority 2020, dated 2026).

Columns and labels:
Type in all cases: cell-based
[1] = molecular target: BaF3 cell lines stably transfected with kinase EGFR Del (Homo sapiens, UniProt P00533, cells depend on it, form not given); test: Growth inhibition of BaF3 cell line stably transfected with kinase EGFR Del (MTS); settings: 48 h, read-out: growth inhibitory activity IC50, Del
Procedure: (§1) Biological Activity Assay: Growth Inhibitory Activity of Compounds on Cell Lines Stably Transfected with Kinase
(§2) The activity of compounds against various mutants of kinase EGFR was evaluated by their effect of inhibiting growth of BaF3 cell lines stably transfected with kinase. The specific test method was given as follows:
(§3) 1) Culture medium: DMEM (Dulbecco's modified eagle medium) or RPMI 1640 (containing 10% fetal bovine serum, 100 μg/mL ampicillin, 100 μg/mL streptomycin).
(§4) 2) Reagent: MTS reaction solution (containing 2 mg/mL of MTS [3-(4,5-di methylthiazol-2-yl)-5-(3-carboxymethoxyphenyl)-2-(4-sulfophenyl)-2H-tetrazolium, inner Salt]; 100 μg/mL of PES (phenazine […])).
(§5) 3) Compound test: cells were incubated into a 96-well culture plate, the volume of cytosol was 90 μL, and then 10 μL of the compound at each gradient concentration was added. That is, the highest concentration was 10 μM, which was diluted stepwise by ⅓, and 8 concentration points were set in total; 0.1% DMSO (dimethyl sulfoxide) was contained in the system. The cell plate with uniformly mixed compound was cultured in a cell culture incubator (37° C.; 5% […]) for 48 h, then 20 μL of MTS reaction solution was added, uniformly mixed and incubated in the cell culture incubator (37° C.; 5% CO2) for 1-4 h; OD values at 490 nm were measured by a microplate reader (VARIOSKAN FLASH, Thermo). Two parallels were set in each group of experiments, with 0.1% (a final concentration) DMSO as a negative control, and a culture medium without cells and compounds as a blank control. The cell growth inhibition rate was calculated by the following formula: Cell growth inhibition rate %=1−(ODexperimental group−ODblank group)/(ODnegative group−ODblank group)×100%.
(§6) 4) IC50 calculation: The semi-inhibitory concentration of the compounds acting on cells was calculated using GradPad Prism 5 software according to the measured cell growth inhibition rate.

[2] = molecular target: BaF3 cell lines stably transfected with kinase EGFR Del/T790M/C797S (Homo sapiens, UniProt P00533, T790M/C797S, cells depend on it, form not given); test: Growth inhibition of BaF3 cell line stably transfected with kinase EGFR Del/T790M/C797S (MTS); settings: 48 h, read-out: growth inhibitory activity IC50, Del/T790M/C797S
Procedure: as §1, §2, §3, §4, §5, §6

[3] = molecular target: BaF3 cell lines stably transfected with kinase EGFR L858R/T790M/C797S (Homo sapiens, UniProt P00533, T790M/C797S/L858R, cells depend on it); test: Growth inhibition of BaF3 cell line stably transfected with kinase EGFR L858R/T790M/C797S (MTS); settings: 48 h, read-out: growth inhibitory activity IC50, L858R/T790M/C797S
Procedure: as §1, §2, §3, §4, §5, §6

[4] = molecular target: BaF3 cell lines stably transfected with kinase EGFR Del/T790M (Homo sapiens, UniProt P00533, T790M, cells depend on it, form not given); test: Growth inhibition of BaF3 cell line stably transfected with kinase EGFR Del/T790M (MTS); settings: 48 h, read-out: growth inhibitory activity IC50, Del/T790M
Procedure: as §1, §2, §3, §4, §5, §6

[5] = molecular target: BaF3 cell lines stably transfected with kinase EGFR L858R/T790M (Homo sapiens, UniProt P00533, T790M/L858R, cells depend on it); test: Growth inhibition of BaF3 cell line stably transfected with kinase EGFR L858R/T790M (MTS); settings: 48 h, read-out: growth inhibitory activity IC50, L858R/T790M
Procedure: as §1, §2, §3, §4, §5, §6

[6] = molecular target: BaF3 cell lines stably transfected with kinase EGFR L858R (Homo sapiens, UniProt P00533, L858R, cells depend on it); test: Growth inhibition of BaF3 cell line stably transfected with kinase EGFR L858R (MTS); settings: 48 h, read-out: growth inhibitory activity IC50, L858R
Procedure: as §1, §2, §3, §4, §5, §6

Sequence of BaF3 cell lines stably transfected with kinase EGFR L858R/T790M/C797S (P00533 whole entry T790M/C797S/L858R): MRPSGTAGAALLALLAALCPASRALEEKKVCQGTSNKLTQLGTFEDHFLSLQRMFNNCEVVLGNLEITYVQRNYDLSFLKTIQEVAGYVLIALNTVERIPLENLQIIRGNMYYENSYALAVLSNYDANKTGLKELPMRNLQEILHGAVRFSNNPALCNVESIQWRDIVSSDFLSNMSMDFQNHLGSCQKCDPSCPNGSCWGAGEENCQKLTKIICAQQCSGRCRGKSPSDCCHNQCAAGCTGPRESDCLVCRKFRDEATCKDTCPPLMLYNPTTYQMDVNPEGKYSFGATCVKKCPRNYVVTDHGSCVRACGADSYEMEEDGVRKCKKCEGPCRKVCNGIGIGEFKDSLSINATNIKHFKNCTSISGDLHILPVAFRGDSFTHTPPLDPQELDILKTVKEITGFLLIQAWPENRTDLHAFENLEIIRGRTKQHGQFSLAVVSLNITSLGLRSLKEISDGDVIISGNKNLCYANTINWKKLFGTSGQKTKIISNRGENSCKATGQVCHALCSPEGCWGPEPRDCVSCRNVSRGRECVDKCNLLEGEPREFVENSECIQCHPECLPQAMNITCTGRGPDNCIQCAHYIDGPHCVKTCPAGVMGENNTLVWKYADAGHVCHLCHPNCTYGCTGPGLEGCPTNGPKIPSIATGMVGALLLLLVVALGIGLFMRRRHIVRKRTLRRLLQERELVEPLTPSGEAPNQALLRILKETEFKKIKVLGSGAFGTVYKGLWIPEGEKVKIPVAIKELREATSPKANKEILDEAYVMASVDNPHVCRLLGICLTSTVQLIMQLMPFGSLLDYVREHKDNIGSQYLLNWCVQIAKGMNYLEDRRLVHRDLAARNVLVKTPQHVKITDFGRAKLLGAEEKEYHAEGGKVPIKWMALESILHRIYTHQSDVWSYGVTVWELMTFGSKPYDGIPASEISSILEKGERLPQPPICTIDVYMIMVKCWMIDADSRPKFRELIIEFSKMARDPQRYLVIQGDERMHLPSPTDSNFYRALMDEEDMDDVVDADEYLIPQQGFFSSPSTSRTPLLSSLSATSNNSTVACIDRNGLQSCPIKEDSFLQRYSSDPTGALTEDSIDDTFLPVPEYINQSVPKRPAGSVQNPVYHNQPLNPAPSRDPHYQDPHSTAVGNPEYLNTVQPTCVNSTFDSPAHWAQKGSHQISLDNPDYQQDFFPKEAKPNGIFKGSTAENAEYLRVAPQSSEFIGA
Sequence of BaF3 cell lines stably transfected with kinase EGFR Del/T790M/C797S (P00533 with tags, fused parts or gaps DEL746-750/T790M/C797S, form open): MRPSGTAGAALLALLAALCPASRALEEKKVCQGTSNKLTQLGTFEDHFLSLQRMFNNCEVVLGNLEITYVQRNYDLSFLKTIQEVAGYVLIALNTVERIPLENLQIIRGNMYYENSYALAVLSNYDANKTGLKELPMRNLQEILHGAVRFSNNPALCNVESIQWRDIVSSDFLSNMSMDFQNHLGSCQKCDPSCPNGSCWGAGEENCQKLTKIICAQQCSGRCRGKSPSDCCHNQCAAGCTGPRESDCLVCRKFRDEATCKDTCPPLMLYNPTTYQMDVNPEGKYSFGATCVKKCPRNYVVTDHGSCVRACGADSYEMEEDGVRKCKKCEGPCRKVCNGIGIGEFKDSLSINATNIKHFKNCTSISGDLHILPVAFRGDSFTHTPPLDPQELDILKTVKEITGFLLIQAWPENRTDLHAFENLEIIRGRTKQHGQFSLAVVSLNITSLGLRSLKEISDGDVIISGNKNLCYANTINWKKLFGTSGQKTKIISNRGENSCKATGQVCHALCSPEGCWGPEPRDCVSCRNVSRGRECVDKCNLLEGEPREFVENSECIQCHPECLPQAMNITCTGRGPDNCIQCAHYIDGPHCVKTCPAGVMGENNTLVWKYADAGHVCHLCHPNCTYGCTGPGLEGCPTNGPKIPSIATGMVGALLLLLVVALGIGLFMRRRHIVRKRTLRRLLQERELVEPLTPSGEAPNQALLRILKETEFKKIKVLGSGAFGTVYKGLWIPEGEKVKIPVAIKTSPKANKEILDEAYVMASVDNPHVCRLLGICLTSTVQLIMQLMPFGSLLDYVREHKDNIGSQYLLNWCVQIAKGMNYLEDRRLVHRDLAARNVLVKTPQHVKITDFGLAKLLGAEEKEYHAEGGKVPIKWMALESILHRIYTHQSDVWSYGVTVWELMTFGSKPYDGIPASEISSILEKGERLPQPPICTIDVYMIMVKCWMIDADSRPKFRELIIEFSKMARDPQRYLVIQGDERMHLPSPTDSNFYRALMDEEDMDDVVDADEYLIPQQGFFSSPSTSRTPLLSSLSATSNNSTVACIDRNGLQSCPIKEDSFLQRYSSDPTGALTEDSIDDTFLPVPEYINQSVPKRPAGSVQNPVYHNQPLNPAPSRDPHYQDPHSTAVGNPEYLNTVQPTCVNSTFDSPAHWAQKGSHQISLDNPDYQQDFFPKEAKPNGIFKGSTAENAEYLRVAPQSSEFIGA
Sequence of BaF3 cell lines stably transfected with kinase EGFR Del (P00533 with tags, fused parts or gaps DEL746-750): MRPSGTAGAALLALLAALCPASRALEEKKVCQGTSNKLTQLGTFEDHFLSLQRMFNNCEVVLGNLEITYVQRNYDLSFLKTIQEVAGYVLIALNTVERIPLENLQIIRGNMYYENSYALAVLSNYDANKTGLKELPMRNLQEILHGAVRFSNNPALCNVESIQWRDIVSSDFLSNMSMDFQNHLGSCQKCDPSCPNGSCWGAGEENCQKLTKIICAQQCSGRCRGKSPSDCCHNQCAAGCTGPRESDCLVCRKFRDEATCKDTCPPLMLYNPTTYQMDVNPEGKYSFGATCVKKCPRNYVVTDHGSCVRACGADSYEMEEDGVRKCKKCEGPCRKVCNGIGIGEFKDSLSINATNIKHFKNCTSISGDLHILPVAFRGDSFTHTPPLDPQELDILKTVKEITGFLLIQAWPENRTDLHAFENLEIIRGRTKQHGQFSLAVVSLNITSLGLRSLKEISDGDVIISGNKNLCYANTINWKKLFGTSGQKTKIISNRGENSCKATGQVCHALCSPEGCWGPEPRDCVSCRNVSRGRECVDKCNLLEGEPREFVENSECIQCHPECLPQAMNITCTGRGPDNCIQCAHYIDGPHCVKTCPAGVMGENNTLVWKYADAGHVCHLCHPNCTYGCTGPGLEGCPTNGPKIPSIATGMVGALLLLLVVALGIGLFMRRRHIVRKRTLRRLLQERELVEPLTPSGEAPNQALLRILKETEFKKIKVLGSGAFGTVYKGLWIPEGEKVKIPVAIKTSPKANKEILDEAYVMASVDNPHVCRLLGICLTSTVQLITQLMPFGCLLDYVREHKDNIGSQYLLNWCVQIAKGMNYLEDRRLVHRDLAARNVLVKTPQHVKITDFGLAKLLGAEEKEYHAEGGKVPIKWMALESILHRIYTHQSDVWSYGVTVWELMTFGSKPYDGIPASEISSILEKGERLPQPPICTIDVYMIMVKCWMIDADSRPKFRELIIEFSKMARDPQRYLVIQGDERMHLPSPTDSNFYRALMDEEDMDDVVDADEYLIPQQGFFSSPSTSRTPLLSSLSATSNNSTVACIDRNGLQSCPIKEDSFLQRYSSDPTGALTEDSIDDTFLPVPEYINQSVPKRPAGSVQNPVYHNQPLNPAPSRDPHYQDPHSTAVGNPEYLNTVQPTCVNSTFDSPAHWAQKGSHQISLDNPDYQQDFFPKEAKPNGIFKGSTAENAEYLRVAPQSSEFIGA
Sequence of BaF3 cell lines stably transfected with kinase EGFR Del/T790M (P00533 with tags, fused parts or gaps DEL746-750/T790M, form open): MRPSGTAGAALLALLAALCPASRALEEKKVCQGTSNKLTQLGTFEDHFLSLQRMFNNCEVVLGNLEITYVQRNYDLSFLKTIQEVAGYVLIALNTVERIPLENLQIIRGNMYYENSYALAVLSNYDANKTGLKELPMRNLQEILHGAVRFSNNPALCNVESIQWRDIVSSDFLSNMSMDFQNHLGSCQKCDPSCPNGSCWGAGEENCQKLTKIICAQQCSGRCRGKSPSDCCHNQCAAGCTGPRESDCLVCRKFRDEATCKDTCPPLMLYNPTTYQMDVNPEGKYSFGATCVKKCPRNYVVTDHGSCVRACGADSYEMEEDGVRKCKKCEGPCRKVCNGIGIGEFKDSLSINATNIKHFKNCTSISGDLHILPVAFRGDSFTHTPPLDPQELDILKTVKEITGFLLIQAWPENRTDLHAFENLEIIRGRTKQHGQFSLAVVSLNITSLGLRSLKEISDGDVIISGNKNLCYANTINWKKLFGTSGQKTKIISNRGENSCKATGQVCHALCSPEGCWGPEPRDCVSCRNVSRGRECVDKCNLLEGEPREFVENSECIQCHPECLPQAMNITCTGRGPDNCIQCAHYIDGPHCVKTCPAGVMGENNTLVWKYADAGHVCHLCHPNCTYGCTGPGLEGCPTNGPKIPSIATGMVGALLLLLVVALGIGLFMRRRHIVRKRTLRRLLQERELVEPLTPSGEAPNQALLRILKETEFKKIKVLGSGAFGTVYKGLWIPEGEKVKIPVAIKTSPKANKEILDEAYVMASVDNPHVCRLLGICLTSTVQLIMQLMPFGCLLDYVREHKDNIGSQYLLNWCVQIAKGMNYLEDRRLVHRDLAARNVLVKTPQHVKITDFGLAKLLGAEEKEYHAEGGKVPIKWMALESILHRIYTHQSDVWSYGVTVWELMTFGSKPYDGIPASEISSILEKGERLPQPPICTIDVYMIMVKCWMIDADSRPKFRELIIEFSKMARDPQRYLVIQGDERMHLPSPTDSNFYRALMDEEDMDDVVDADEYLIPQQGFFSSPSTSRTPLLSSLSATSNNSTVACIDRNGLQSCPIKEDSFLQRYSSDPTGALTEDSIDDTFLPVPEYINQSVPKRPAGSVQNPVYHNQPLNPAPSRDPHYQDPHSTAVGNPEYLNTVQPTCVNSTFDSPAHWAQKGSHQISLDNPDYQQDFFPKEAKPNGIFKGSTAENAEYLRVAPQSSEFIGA

Row | SMILES | GI50 [1] | GI50 [2] | GI50 [3] | GI50 [4] | GI50 [5] | GI50 [6]
1 | C=Cc1cnc(Nc2ccc(N3CCC(N4CCN(C)CC4)CC3)cc2OC)nc1Nc1ccc2nccnc2c1S(=O)(=O)NC [IV-1] | 500 to 2500 nM | 500 to 2500 nM | 500 to 2500 nM | 500 to 2500 nM | 50 to 500 nM | 500 to 2500 nM
2 | C=Cc1cnc(Nc2cc(CC)c(NCCO)cc2OC)nc1Nc1ccc2nccnc2c1N(C)S(C)(=O)=O [II-49] | 500 to 2500 nM | 50 to 500 nM | 50 to 500 nM | 500 to 2500 nM | 50 to 500 nM | 500 to 2500 nM
3 | C=Cc1cnc(Nc2cc(CC)c(NCCN(C)C)cc2OC)nc1Nc1ccc2nccnc2c1N(C)S(C)(=O)=O [II-50] | 500 to 2500 nM | 50 to 500 nM | 50 to 500 nM | 50 to 500 nM | 50 to 500 nM | 500 to 2500 nM
4 | C=Cc1cnc(Nc2cc(C(C)C)c(N3CCC(N4CCN(C)CC4)CC3)cc2OC)nc1Nc1ccc2nccnc2c1S(=O)(=O)NC [IV-6] | 500 to 2500 nM | 500 to 2500 nM | 500 to 2500 nM | 50 to 500 nM | 50 to 500 nM | 500 to 2500 nM
5 | C=Cc1cnc(Nc2cc(F)c(N3CCC(N4CCN(C)CC4)CC3)c(F)c2)nc1Nc1ccc2nccnc2c1S(C)(=O)=O [III-16] | 500 to 2500 nM | 500 to 2500 nM | 500 to 2500 nM | 50 to 500 nM | 500 to 2500 nM | 500 to 2500 nM
6 | C=Cc1cnc(Nc2cc(CC)c(N3CCC(N4CCN(C)CC4)CC3)cc2OC(F)(F)F)nc1Nc1ccc2nccnc2c1P(C)(C)=O [Compound I-6] | 50 to 500 nM | ≤ 50 nM | ≤ 50 nM | ≤ 50 nM | ≤ 50 nM | ≤ 50 nM
7 | C=Cc1cnc(Nc2cc(CC)c(N3CCC(N4CCN(C)CC4)CC3)cc2OC)nc1Nc1ccc2nccnc2c1NS(=O)(=O)C(C)C [II-44] | 50 to 500 nM | 50 to 500 nM | ≤ 50 nM | 50 to 500 nM | 500 to 2500 nM | 50 to 500 nM
8 | C=Cc1cnc(Nc2cc(CC)c(N3CCC(N4CCN(C)CC4)CC3)cc2OC)nc1Nc1ccc2nccnc2c1N(C)S(=O)(=O)C(F)(F)F [II-8] | 50 to 500 nM | 50 to 500 nM | 50 to 500 nM | 50 to 500 nM | 50 to 500 nM | 50 to 500 nM
9 | CCc1cc(Nc2ncc(/C=C/c3ccccc3)c(Nc3ccc4nccnc4c3P(C)(C)=O)n2)c(OC)cc1N1CCC(N2CCN(C)CC2)CC1 [Compound I-14] | 50 to 500 nM | 50 to 500 nM | 50 to 500 nM | 50 to 500 nM | 500 to 2500 nM | ≤ 50 nM
10 | C=C(C)c1cnc(Nc2cnn(C)c2)nc1Nc1ccc2nccnc2c1N(C)S(C)(=O)=O [II-71] | 50 to 500 nM | ≤ 50 nM | 50 to 500 nM | ≤ 50 nM | ≤ 50 nM | 50 to 500 nM
11 | C=Cc1cnc(Nc2cc(CC)c(N3CCC(N4CCN(C)CC4)CC3)cc2OC)nc1Nc1ccc2nccnc2c1S(C)(=O)=O [III-1] | 50 to 500 nM | 500 to 2500 nM | 500 to 2500 nM | 50 to 500 nM | 50 to 500 nM | 500 to 2500 nM
12 | C=Cc1cnc(Nc2cc(C)n(C)n2)nc1Nc1ccc2nccnc2c1N(C)S(C)(=O)=O [II-62] | 500 to 2500 nM | 50 to 500 nM | 50 to 500 nM | 500 to 2500 nM | 500 to 2500 nM | 500 to 2500 nM
13 | C=C(C)c1cnc(Nc2cn[nH]c2)nc1Nc1ccc2nccnc2c1N(C)S(C)(=O)=O [II-70] | 50 to 500 nM | ≤ 50 nM | 50 to 500 nM | 50 to 500 nM | ≤ 50 nM | 50 to 500 nM
14 | C=Cc1cnc(Nc2cc(C3CC3)c(N3CCC(N4CCN(C)CC4)CC3)cc2OC)nc1Nc1ccc2nccnc2c1N(C)S(C)(=O)=O [II-18] | 50 to 500 nM | 50 to 500 nM | 50 to 500 nM | ≤ 50 nM | 50 to 500 nM | 50 to 500 nM
15 | C=C(C)c1cnc(Nc2cc(C(C)C)c(N3CCC(N4CCN(C)CC4)CC3)cc2OC)nc1Nc1ccc2nccnc2c1N(C)S(C)(=O)=O [II-22] | 50 to 500 nM | 50 to 500 nM | 500 to 2500 nM | 50 to 500 nM | 50 to 500 nM | 50 to 500 nM
16 | C=Cc1cnc(Nc2cc(CC)c(N3CCC(N4CCN(C)CC4)CC3)nc2OC)nc1Nc1ccc2nccnc2c1N(C)S(C)(=O)=O [II-5] | 50 to 500 nM | 50 to 500 nM | 50 to 500 nM | ≤ 50 nM | ≤ 50 nM | 50 to 500 nM
17 | C=Cc1cnc(Nc2cc[nH]n2)nc1Nc1ccc2nccnc2c1N(C)S(C)(=O)=O [II-59] | 50 to 500 nM | 500 to 2500 nM | 500 to 2500 nM | 500 to 2500 nM | 500 to 2500 nM | 500 to 2500 nM

The next lines start with the values.

Row | GI50 [1] | GI50 [2] | GI50 [3] | GI50 [4] | GI50 [5] | GI50 [6] | SMILES
18 | ≤ 50 nM | ≤ 50 nM | ≤ 50 nM | ≤ 50 nM | 50 to 500 nM | ≤ 50 nM | C=Cc1cnc(Nc2cc(CC)c(N3CCC(C4CN(C)C4)CC3)cc2OC)nc1Nc1ccc2nccnc2c1N(C)S(C)(=O)=O [II-54]
19 | ≤ 50 nM | ≤ 50 nM | ≤ 50 nM | ≤ 50 nM | ≤ 50 nM | ≤ 50 nM | C=Cc1cnc(Nc2cc(C)c(N3CCC(N4CCN(C)CC4)CC3)cc2OC)nc1Nc1ccc2nccnc2c1N(C)S(C)(=O)=O [II-15]
20 | 50 to 500 nM | 50 to 500 nM | 50 to 500 nM | 50 to 500 nM | 50 to 500 nM | 50 to 500 nM | C=Cc1cnc(Nc2cc(CC)c(N3CCN(C)CC3)cc2OC)nc1Nc1ccc2nccnc2c1S(=O)(=O)NC [IV-15]
21 | 50 to 500 nM | 50 to 500 nM | 50 to 500 nM | 50 to 500 nM | 50 to 500 nM | 50 to 500 nM | C=Cc1cnc(Nc2cn(CC)nc2C)nc1Nc1ccc2nccnc2c1N(C)S(C)(=O)=O [II-67]
22 | ≤ 50 nM | 50 to 500 nM | ≤ 50 nM | ≤ 50 nM | 50 to 500 nM | ≤ 50 nM | C=Cc1cnc(Nc2cc(C)c(N3CCC(N4CCN(C)CC4)CC3)cc2OC)nc1Nc1ccc2nccnc2c1NS(C)(=O)=O [II-31]
23 | 50 to 500 nM | 50 to 500 nM | 50 to 500 nM | 50 to 500 nM | ≤ 50 nM | 50 to 500 nM | C=Cc1cnc(Nc2ccc(N3CCC(N4CCN(C)CC4)CC3)c(CC)c2)nc1Nc1ccc2nccnc2c1S(=O)(=O)NC [IV-9]
24 | ≤ 50 nM | 50 to 500 nM | 50 to 500 nM | ≤ 50 nM | ≤ 50 nM | ≤ 50 nM | C=C(C)c1cnc(Nc2ccc(N3CCC(N4CCN(C)CC4)CC3)c(CC)c2)nc1Nc1ccc2nccnc2c1N(C)S(C)(=O)=O [II-24]
25 | ≤ 50 nM | 50 to 500 nM | ≤ 50 nM | ≤ 50 nM | ≤ 50 nM | ≤ 50 nM | C=Cc1cnc(Nc2cc(CC)c(N3CCC(N4CCN(C)CC4)CC3)cc2OC)nc1Nc1ccc2nccnc2c1N(C1CC1)S(C)(=O)=O [II-14]
26 | ≤ 50 nM | ≤ 50 nM | ≤ 50 nM | ≤ 50 nM | 50 to 500 nM | ≤ 50 nM | C=Cc1cnc(Nc2cc(CC)c(N3CCC(N(C)C)C3)cc2OC)nc1Nc1ccc2nccnc2c1NS(C)(=O)=O (stereo not drawn) [II-40]
27 | ≤ 50 nM | ≤ 50 nM | ≤ 50 nM | ≤ 50 nM | ≤ 50 nM | ≤ 50 nM | C=Cc1cnc(Nc2cc(CC3CC3)c(N3CCC(N4CCN(C)CC4)CC3)cc2OC)nc1Nc1ccc2nccnc2c1N(C)S(C)(=O)=O [II-7]
28 | ≤ 50 nM | ≤ 50 nM | ≤ 50 nM | ≤ 50 nM | ≤ 50 nM | ≤ 50 nM | C=C(C)c1cnc(Nc2cc(CC)c(N3CCC(N4CCN(C)CC4)CC3)cc2OC)nc1Nc1ccc2nccnc2c1N(C)S(C)(=O)=O [II-21]
